# Tests used:
# PRMT5/MEP50 = PRMT5/MEP50 (Homo sapiens (Human), UniProt O14744); test: PRMT5 Biochemical Assay (PRMT5/MEP50 enzyme assay on peptide substrate, 3H-SAM Flashplate); settings: PRMT5/MEP50 4 nM, 3H-SAM 75 nM, peptide 40 nM
# Source text: S-adenosylmethionine (SAM), S-adenosylhomocysteine (SAH), bicine, KCl, Tween20, dimethylsulfoxide (DMSO), bovine skin gelatin (BSG), and Tris(2-carboxyethyl)phosphine hydrochloride solution (TCEP) were purchased from Sigma-Aldrich at the highest level of purity possible. ^3H-SAM was purchase from American Radiolabeled Chemicals with a specific activity of 80 Ci/mmol. 384-well streptavidin Flashplates were purchased from PerkinElmer.
# Peptide representative of human histone H4 residues 1-15 was synthesized with a C-terminal linker-affinity tag motif and a C-terminal amide cap by 21st Century Biochemicals. The peptide was high high-performance liquid chromatography (HPLC) purified to greater than 95% purity and confirmed by liquid chromatography mass spectrometry (LC-MS). The sequence was Ac-[…][K-Biot]-amide (SEQ ID NO.: 3).
# Full-length human PRMT5 (NM_006109.3) transcript variant 1 clone was amplified from a fetal brain cDNA library, incorporating flanking 5′ sequence encoding a FLAG tag ([…]) (SEQ ID NO.: 4) fused directly to Ala 2 of PRMT5. Full-length human MEP50 (NM_024102) clone was amplified from a human testis cDNA library incorporating a 5′ sequence encoding a 6-histidine tag (MHHHHHH) (SEQ ID NO.: 5) fused directly to Arg 2 of MEP50. The amplified genes were sublconed into pENTR/D/TEV (Life Technologies) and subsequently transferred by Gateway™ attL x attR recombination to pDEST8 baculvirus expression vector (Life Technologies).
# Recombinant baculovirus and Baculovirus-Infected Insect Cells (BIIC) were generated according to Bac-to-Bac kit instructions (Life Technologies) and Wasilko, 2006, respectively. Protein over-expression was accomplished by infecting exponentially growing Spodoptera frugiperda (SF9) cell culture at 1.2×10^6 cell/ml with a 5000 fold dilution of BIIC stock. Infections were carried out at 27° C. for 72 hours, harvested by centrifugation, and stored at −80° C. for purification.
# Flag-PRMT5/6His-MeP50 was eluted with 300 mM Imidazole in the same buffer. The purity of recovered protein was 87%. Reference: Wasilko, D. J. and S. E. Lee: “TIPS: titerless infected-cells preservation and scale-up” Bioprocess J., 5 (2006), pp. 29-32.
# General Procedure for PRMT5/MEP50 Enzyme Assays on Peptide Substrates.
# The assays were all performed in a buffer consisting of 20 mM Bicine (pH=7.6), 1 mM TCEP, 0.005% BSG, and 0.002% Tween20, prepared on the day of use. Compounds in 100% DMSO (1 ul) were spotted into a polypropylene 384-well V-bottom plates (Greiner) using a Platemate Plus outfitted with a 384-channel head (Thermo Scientific). DMSO (1 ul) was added to Columns 11, 12, 23, 24, rows A-H for the maximum signal control and 1 ul of SAH, a known product and inhibitor of PRMT5/MEP50, was added to columns 11, 12, 23, 24, rows I-P for the minimum signal control. A cocktail (40 ul) containing the PRMT5/MEP50 enzyme and the peptide was added by Multidrop Combi (Thermo-Fisher). The compounds were allowed to incubate with PRMT5/MEP50 for 30 min at 25 degrees Celsius, then a cocktail (10 ul) containing ^3H-SAM was added to initiate the reaction (final volume=51 ul). The final concentrations of the components were as follows: PRMT5/MEP50 was 4 nM, ^3H-SAM was 75 nM, peptide was 40 nM, SAH in the minimum signal control wells was 100 uM, and the DMSO concentration was 1%. The assays were stopped by the addition of non-radioactive SAM (10 ul) to a final concentration of 600 uM, which dilutes the ^3H-SAM to a level where its incorporation into the peptide substrate is no longer detectable. 50 ul of the reaction in the 384-well polypropylene plate was then transferred to a 384-well Flashplate and the biotinylated peptides were allowed to bind to the streptavidin surface for at least 1 hour before being washed three times with 0.1% Tween20 in a Biotek ELx405 plate washer. […]
# Z-138 cells = test: Z-138 Proliferation Assay (Cell Titer Glo); assay type: cell-based; settings: 5 days incubation
# Source text: [formula] Z-138 Proliferation Assay
# Z-138 suspension cells were purchased from ATCC (American Type Culture Collection, Manassas, Va.). RPMI/Glutamax medium, penicillin-streptomycin, heat inactivated fetal bovine serum were purchased from Life Technologies, Grand Island, N.Y., USA. V-bottom polypropylene 384-well plates were purchased from Greiner Bio-One, Monroe, N.C., USA. Cell culture 384-well white opaque plates were purchased from Perkin Elmer, Waltham, Mass., USA. Cell-Titer Glo® was purchased from Promega Corporation, Madison, Wis., USA. SpectraMax M5 plate reader was purchased from Molecular Devices LLC, Sunnyvale, Calif., USA.
# Z-138 suspension cells were maintained in growth medium (RPMI 1640 supplemented with 10% v/v heat inactivated fetal bovine serum and cultured at 37° C. under 5% CO2. Under assay conditions, cells were incubated in assay medium (RPMI 1640 supplemented with 10% v/v heat inactivated fetal bovine serum and 100 units/mL penicillin-streptomycin) at 37° C. under 5% CO2.
# For the assessment of the effect of compounds on the proliferation of the Z-138 cell line, exponentially growing cells were plated in 384-well white opaque plates at a density of 10,000 cells/ml in a final volume of 50 μl of assay medium. A compound source plate was prepared by performing triplicate nine-point 3-fold serial dilutions in DMSO, beginning at 10 mM (final top concentration of compound in the assay was 20 μM and the DMSO was 0.2%). A 100 nL aliquot from the compound stock plate was added to its respective well in the cell plate. […] After addition of compounds, assay plates were incubated for 5 days at 37° C., 5% CO2, relative humidity >90%.
# Cell viability was measured by quantitation of ATP present in the cell cultures, adding 35 μl of Cell Titer Glo® reagent to the cell plates. Luminescence was read in the SpectraMax M5 microplate reader. The concentration of compound inhibiting cell viability by 50% was determined using a 4-parametric fit of the normalized dose response curves.
# Chain of PRMT5/MEP50 (O14744 other isoform, or with tags, fused parts or gaps): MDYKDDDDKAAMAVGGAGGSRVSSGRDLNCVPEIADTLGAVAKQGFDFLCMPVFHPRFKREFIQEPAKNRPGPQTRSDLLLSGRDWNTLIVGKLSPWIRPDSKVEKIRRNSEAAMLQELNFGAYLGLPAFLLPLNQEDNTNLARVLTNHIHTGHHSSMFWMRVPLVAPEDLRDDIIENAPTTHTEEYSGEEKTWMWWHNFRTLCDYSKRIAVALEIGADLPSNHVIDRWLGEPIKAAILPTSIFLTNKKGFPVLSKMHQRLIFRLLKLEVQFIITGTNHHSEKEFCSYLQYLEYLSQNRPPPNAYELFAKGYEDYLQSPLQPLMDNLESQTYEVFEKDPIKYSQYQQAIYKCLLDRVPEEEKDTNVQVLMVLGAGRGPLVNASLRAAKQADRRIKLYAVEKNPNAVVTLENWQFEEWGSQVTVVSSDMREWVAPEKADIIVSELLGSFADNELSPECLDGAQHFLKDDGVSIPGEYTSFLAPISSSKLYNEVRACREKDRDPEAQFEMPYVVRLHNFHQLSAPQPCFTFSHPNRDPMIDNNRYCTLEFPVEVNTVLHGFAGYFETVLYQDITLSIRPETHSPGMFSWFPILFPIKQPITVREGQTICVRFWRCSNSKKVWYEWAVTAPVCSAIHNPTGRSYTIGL
# Chain of PRMT5/MEP50 (Q9BQA1 other isoform, or with tags, fused parts or gaps partner): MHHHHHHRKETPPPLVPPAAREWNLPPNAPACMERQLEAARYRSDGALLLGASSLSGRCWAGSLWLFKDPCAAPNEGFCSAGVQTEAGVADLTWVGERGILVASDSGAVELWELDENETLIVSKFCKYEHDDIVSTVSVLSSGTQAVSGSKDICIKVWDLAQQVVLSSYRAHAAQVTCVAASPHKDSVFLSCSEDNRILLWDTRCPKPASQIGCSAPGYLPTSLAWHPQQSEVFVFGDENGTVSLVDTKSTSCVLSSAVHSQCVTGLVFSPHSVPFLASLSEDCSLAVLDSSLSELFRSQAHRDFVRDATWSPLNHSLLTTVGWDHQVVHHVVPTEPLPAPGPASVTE
Compound,IC50 (PRMT5/MEP50),"EC50 (Z-138 cells; Homo sapiens, 120 h)",EC50 (Z-138 cells)
O=C(NC[C@H](O)CN1Cc2ccccc2C1)c1cccc(NC2CCOCC2)c1 [compound 28],< 0.1 µM,10 to 50 µM,
"C[C@@H](Oc1cccc2cccnc12)C(=O)NC[C@H](O)CN1Cc2ccccc2C1 [compound 5, (R)—N—((S)-2-hydroxy-3-(isoindolin-2-yl)propyl)-2-(quinolin-8-yloxy)propanamide]",< 0.1 µM,1 to 10 µM,
CC(=O)N1CCC(Nc2cc(C(=O)NC[C@H](O)CN3CCc4ccccc43)ccn2)CC1 [compound 44],> 10 µM,> 5 µM,
"O=C(NCC(O)CN1Cc2ccccc2C1)c1cccc(-c2ccccn2)c1 (centres unmarked) [compound 13, N-(2-hydroxy-3-(isoindolin-2-yl)propyl)-3-(pyridin-2-yl)benzamide]",0.101 to 1 µM,> 20 µM,
"CN(C)S(=O)(=O)c1ccccc1OCC(=O)NCC(O)CN1Cc2ccccc2C1 (centres unmarked) [compound 15, 2-(2-(N,N-dimethylsulfamoyl)phenoxy)-N-(2-hydroxy-3-(isoindolin-2-yl)propyl)acetamide]",< 0.1 µM,1 to 10 µM,
O=C(COc1ccccc1-c1cc[nH]n1)NCC(O)CN1Cc2ccccc2C1 (centres unmarked) [compound 7],0.101 to 1 µM,> 20 µM,
O=C(NC[C@H](O)CN1Cc2ccccc2C1)c1cc(NC2CCOCC2)ncn1 [compound 29],< 0.1 µM,1 to 10 µM,
O=C(NC[C@H](O)CN1Cc2ccccc2C1)c1cc(NC2COC2)nc(C(F)(F)F)n1 [compound 36],0.101 to 1 µM,10 to 50 µM,
O=C(NC[C@H](O)CN1CCc2ccccc21)c1cc(NC2COC2)ncn1 [compound 42],> 10 µM,> 5 µM,
"O=C(COc1cccc2cccnc12)NCC(O)CN1Cc2ccccc2C1 (centres unmarked) [compound 19, N-(2-hydroxy-3-(isoindolin-2-yl)propyl)-2-(quinolin-8-yloxy)acetamide]",0.101 to 1 µM,> 20 µM,
O=C(NC[C@H](O)CN1Cc2ccccc2C1)c1cc(NC2COC2)nc(N2CCOCC2)n1 [compound 38],< 0.1 µM,1 to 10 µM,
O=C(CCc1nc2ccccc2[nH]1)NCC(O)CN1Cc2ccccc2C1 (centres unmarked) [compound 37],0.101 to 1 µM,> 20 µM,
O=C(NC[C@H](O)CN1CCCCc2ccccc21)c1cc(NC2COC2)ncn1 [compound 45],> 10 µM,> 5 µM,

# Further lines, with some results ahead:
IC50 (PRMT5/MEP50),Compound,"EC50 (Z-138 cells; Homo sapiens, 120 h)",EC50 (Z-138 cells)
> 10 µM,CC(=O)N1CCC(Nc2cc(C(=O)NC[C@H](O)CN3CCCc4ccccc4C3)ncn2)CC1 [compound 50],> 5 µM,
1 to 10 µM,CC(=O)N1CCC(Nc2cc(C(=O)NC[C@H](O)CN3CCCCc4ccccc43)ncn2)CC1 [compound 47],> 5 µM,
> 10 µM,O=C(NC[C@H](O)CN1CCCc2ccccc2C1)c1cc(NC2COC2)ncn1 [compound 48],> 5 µM,
> 10 µM,CC(=O)N1CCC(Nc2cc(C(=O)NC[C@H](O)CN3CCc4ccccc43)ncn2)CC1 [compound 43],> 5 µM,
> 10 µM,CC(=O)N1CC(Nc2cc(C(=O)NC[C@H](O)CN3CCCCc4ccccc43)ncn2)C1 [compound 46],> 5 µM,
0.101 to 1 µM,"N-(2-hydroxy-3-(isoindolin-2-yl)propyl)-2-((4-methyl-3,4-dihydro-2H-benzo[b][1,4]oxazin-5-yl)oxy)acetamide [compound 10]",,> 20 µM
< 0.1 µM,CC(=O)N1CCC(Nc2cc(C(=O)NC[C@H](O)CN3Cc4ccccc4C3)ccn2)CC1 [compound 40],0.101 to 1 µM,
0.101 to 1 µM,Cc1nc(NC2COC2)cc(C(=O)NC[C@H](O)CN2Cc3ccccc3C2)n1 [compound 35],> 20 µM,
1 to 10 µM,CC(=O)N1CC(Nc2cc(C(=O)NC[C@H](O)CN3CCCc4ccccc4C3)ncn2)C1 [compound 49],> 5 µM,

# Reference: patent publication US10118918B2, “PRMT5 inhibitors and uses thereof” (Epizyme, Inc., priority 2012, dated 2018)
